Measurements reported in patent publication US20090311246A1, “Method of Enhancing Remyelination in Demyelinating Diseases of the Central Nervous System” (priority 2008, published 2009).

Legend:
[1] = tested on: sera from SFV-infected B6 mice; format: binding
Experimental: To measure the antibody response of both WT and γδ KO mice against SFV and two of the peptides of the SFV envelope protein, E2, an indirect ELISA was performed. Sera were pooled from 4-6 SFV-infected WT, and 3 KO, mice on days 0, 7, 14, 21 and 35 pi. Briefly, Immunolon 2HB 96 well microtiter plates (VWR, Bridge Port, N.J.) were coated with 1 μg/well of each antigen in 100 μl/well carbonate buffer overnight at room temperature. After washing, the plates were blocked and serum samples were added. […] After washing, biotinylated goat anti-mouse Igs (BD Pharmingen, Torreyana, Calif.), Strepavidin conjugated to Horse Radish Peroxidase (Vector Laboratories, Burlingame, Calif.), and OPD substrate (Sigma, St. Louis, Mo.) were used, as previously described (4, 9). […] Values were considered to be positive when they were >0.3 OD units and exceeded the mean value plus three standard deviations for antibody response on day 0 pi of mice of the same strain. […]
In some instances day 0 OD values were high, thus making the differences appear small. Therefore, to account for such discrepancy, we also determined the ratio of the highest day (day 15 or 21) over day 0.

[2] = tested on: sera from SFV-infected WT and γδ KO mice; experiment: ELISA of sera from SFV-infected WT and γδ KO mice against SFV, E2 peptides, PPD and rMOG; format: binding
[3] = tested on: SFV-infected WT and γδ KO mice; experiment: E2 137-151 peptide immunization during SFV disease: serum antibody response (ELISA); format: in vivo
Text: Optical densities (OD) (3A) and ratios (3B) of Non-immunized/Immunized, WT and KO, of ELISA responses to SFV and to E2 peptide, 137-151 is shown. Samples were collected on days 15, 21, 28 and 35 after intraperitoneal infection of B6 mice with SFV and immunization with E2 137-151. The dilutions for sera were 1:80, Amount of antibody is shown as mean optical density (OD) of sera from three experiments±standard error of the mean (SEM). The background OD is subtracted from each time point.
(§1) To measure the antibody response of both WT and γδ KO mice against SFV and two of the peptides of the SFV envelope protein, E2, an indirect ELISA was performed. Sera were pooled from 4-6 SFV-infected WT, and 3 KO, mice on days 0, 7, 14, 21 and 35 pi. Briefly, Immunolon 2HB 96 well microtiter plates (VWR, Bridge Port, N.J.) were coated with 1 μg/well of each antigen in 100 μl/well carbonate buffer overnight at room temperature. After washing, the plates were blocked and serum samples were added. […] After washing, biotinylated goat anti-mouse Igs (BD Pharmingen, Torreyana, Calif.), Strepavidin conjugated to Horse Radish Peroxidase (Vector Laboratories, Burlingame, Calif.), and OPD substrate (Sigma, St. Louis, Mo.) were used, as previously described (4, 9). […] Values were considered to be positive when they were >0.3 OD units and exceeded the mean value plus three standard deviations for antibody response on day 0 pi of mice of the same strain.
WT and KO mice were immunized subcutaneously with E2 137-151 (0.5 mg/injection or 25 mg/kg, based on the average weight of 20 g/mouse) in IFA on the day of SFV-infection. Additional injections of E2 137/IFA were performed on days 5 and 15 for WT and KO mice. Mice are sacrificed on days 15, 21, 35 and 42 pi and sera were tested by ELISA for reactivity with SFV and its peptides. […] This immunization, however, appeared to have suppressed the formation of anti-E2 137-151 antibody in SFV-infected, E2 137-151-immunized WT mice.

[4] = tested on: B6 mice with EAE; experiment: Antibody responses (ELISA) of E2 137-151 peptide treated EAE mice; format: in vivo
Experimental: FIG. 7 Comparison of antibody responses (±SEM) of EAE, E2-137-151 peptide treated, and untreated EAE mice to E2-137-151, MOG 35-55 and control peptides. Three experiments were performed with total number of 21 EAE and 22 treated EAE. All mice were immunized subcutaneously with myelin oligodendrocyte glycoprotein (MOG) peptide, 35-55 in CFA, as described above, on D0. EAE mice were treated as described for FIG. 6. All mice were sacrificed at the end of experiment on D39 post immunization.
as §1
Antibody Responses of RAE and E2 137-151 treated EAE mice to E2-137 and control peptide (E2 115-129) were measured by ELISA at the end of experiment on D39 pi.

SMILES: CC[C@H](C)[C@H](NC(=O)[C@H](CCC(=O)O)NC(=O)[C@H](CCCCN)NC(=O)CNC(=O)[C@H](Cc1ccc(O)cc1)NC(=O)[C@H](Cc1c[nH]cn1)NC(=O)[C@@H]1CCCN1C(=O)[C@H](CCCNC(=N)N)NC(=O)[C@@H](NC(=O)[C@@H](NC(=O)[C@H](Cc1ccccc1)NC(=O)[C@H](CCCCN)NC(=O)[C@H](CCC(=O)O)NC(=O)[C@H](CCCNC(=N)N)NC(=O)CN)[C@@H](C)O)[C@@H](C)CC)C(=O)O [E2 137-151]
- Dh / D0 (Ratio) ([1]; OD of highest day (day 15 or 21) over day 0, SFV-infected sera): 3.96
- Dh−D0 (difference) ([1]; OD of highest day minus day 0, SFV-infected sera): 0.406
- Net change in the levels of antibody (ΔOD), D7-9 ([1]; SFV-infected mice sera, days 7-9 pi, day 0 OD subtracted): 0.84 ± 0.39 ΔOD
- Net change in the levels of antibody (ΔOD), D14-16 ([1]; SFV-infected mice sera, days 14-16 pi, day 0 OD subtracted): 1.83 ± 0.47 ΔOD
- Net change in the levels of antibody (ΔOD), D21-23 ([1]; SFV-infected mice sera, days 21-23 pi, day 0 OD subtracted): 2.19 ± 0.76 ΔOD
- Net change in the levels of antibody (ΔOD), D31-35 ([1]; SFV-infected mice sera, days 31-35 pi, day 0 OD subtracted): 2.08 ± 0.67 ΔOD
- Reactivity of sera from SFV-infected B6 mice with the antigen in ELISA ([1]; vs day 0): reacted
- Net change in the level of antibody, D0 WT ([2]; WT mice, day 0): 0 nano gr
- Net change in the level of antibody, D7 WT ([2]; WT mice, day 7 pi, ± SD): 72 ± 28 nano gr
- Net change in the level of antibody, D14 WT ([2]; WT mice, day 14 pi, ± SD): 565 ± 33 nano gr
- Net change in the level of antibody, D21 WT ([2]; WT mice, day 21 pi, ± SD): 1196 ± 61 nano gr
- Net change in the level of antibody, D35 WT ([2]; WT mice, day 35 pi, ± SD): 951 ± 50 nano gr
- Reactivity of sera from SFV-infected WT mice ([2]; WT, sera 1:80, day 7 pi increasing to day 35): reacted strongly
- Net change in the level of antibody, D0 KO ([2]; γδ KO mice, day 0): 0 nano gr
- Net change in the level of antibody, D7 KO ([2]; γδ KO mice, day 7 pi, ± SD): 39 ± 25 nano gr
- Net change in the level of antibody, D14 KO ([2]; γδ KO mice, day 14 pi, ± SD): 36 ± 19 nano gr
- Net change in the level of antibody, D21 KO ([2]; γδ KO mice, day 21 pi, ± SD): 46.5 ± 19 nano gr
- Net change in the level of antibody, D35 KO ([2]; γδ KO mice, day 35 pi, ± SD): 41 ± 28 nano gr
- Reactivity of sera from SFV-infected γδ KO mice ([2]; γδ KO, sera 1:80): marginally reacted
- Formation of anti-E2 137-151 antibody in SFV-infected, immunized WT mice ([3]; 0.5 mg/injection sc in IFA, WT mice): suppressed
- Ratio of antibody production to SFV, immunized versus non-immunized ([3]; KO and WT mice): did not increase
- Antibody to E2 137-151 peptide after immunization ([3]; SFV-infected KO mice): increased the antibody to this peptide only
- Ratio of KO/WT anti E2 137-151 antibody production ([3]; immunized versus non-immunized): significantly increased
- Antibody response to E2-137, treated compared with untreated EAE mice ([4]; ELISA, D39 pi): significantly higher than untreated EAE mice
- Antibody responses to MOG 35-55 and control peptide, treated compared with untreated EAE mice ([4]; ELISA, D39 pi): no significant difference
- Antibody response to E2-137, treated compared with untreated EAE mice ([4]; ELISA, D39 pi, listed as E2-137 peptide): treated>untreated EAE mice
- Reactivity of sera from treated EAE mice with MBP 54-68 ([4]; preliminary experiments): also reacted with MBP 54-68
